# Data from ChEMBL document CHEMBL5726496, “Piperidine derivatives as HDAC1/2 inhibitors” (2017).
# Target: Histone deacetylase 1 (Homo sapiens, UniProt Q13547)
# Assay: Enzyme Assay: Compounds for testing were diluted in DMSO to 50 fold the final concentration and a ten point three fold dilution series was made. The compounds were diluted in assay buffer (50 mM HEPES, pH 7.4, 100 mM KCl, 0.001% Tween-20, 0.05% BSA, 20 μM tris(2-carboxyethyl)phosphine) to 6 fold their final concentration. The HDAC enzymes (purchased from BPS Biosciences) were diluted to 1.5 fold their final concentration in assay buffer and pre-incubated with the compounds for 24 hours prior to addition of the substrate.
# Chain of Histone deacetylase 1 (Q13547 whole entry): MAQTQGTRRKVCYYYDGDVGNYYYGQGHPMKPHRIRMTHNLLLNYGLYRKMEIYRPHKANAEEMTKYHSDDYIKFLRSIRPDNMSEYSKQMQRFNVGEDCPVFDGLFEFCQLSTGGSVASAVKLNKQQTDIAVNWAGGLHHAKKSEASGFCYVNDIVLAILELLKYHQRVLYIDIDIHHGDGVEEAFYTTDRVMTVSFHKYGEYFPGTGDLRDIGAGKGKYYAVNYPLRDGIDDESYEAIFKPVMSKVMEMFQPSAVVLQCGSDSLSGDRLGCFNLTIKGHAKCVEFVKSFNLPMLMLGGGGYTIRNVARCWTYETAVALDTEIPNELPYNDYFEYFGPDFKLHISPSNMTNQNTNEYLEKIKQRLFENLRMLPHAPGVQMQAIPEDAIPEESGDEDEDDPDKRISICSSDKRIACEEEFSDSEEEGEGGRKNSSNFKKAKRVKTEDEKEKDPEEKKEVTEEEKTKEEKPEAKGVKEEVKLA
row,Structure (SMILES),IC50 [nM]
1,CN(c1ncc(C(=O)Nc2cc(-c3ccccc3)ccc2N)cn1)C1CCN(C(=O)Cc2c[nH]c3ccccc23)CC1,48
2,Nc1ccc(-c2ccccc2)cc1NC(=O)c1cnc(NC2CCN(C(=O)Cc3c[nH]c4ccccc34)CC2)nc1,22
3,CC1(Nc2ncc(C(=O)Nc3cc(-c4ccccc4)ccc3N)cn2)CCNCC1,14
